The text below walks through data of patent publication US8552058B2, “Application of L-n-butylphthalide in preventing and treating dementia” (CSPC Zhongqi Pharmaceutical Technology (Shijazhuang) Co., …, priority 2004, dated 2013).

In experiment [1] the test system is rats with permanent ligation of bilateral common carotid arteries (2-VO model). Kind of experiment: Morris' water maze (training latency, platform exploration) in 2-VO hypoperfusion model. The class given is in vivo, Wistar rats. To be noted: for effect on detention time in the target quadrant (platform exploration test) / improvement of latency / search strategy in water maze: 2-VO rats; for improvement of latency / search strategy in water maze: vs solvent control; for amelioration of impaired short-term memory and spatial orientation (overall conclusion): 2-VO rats with poor blood supply to brain, L-NBP at 10 mg/kg, 10 mg/kg.

Experiment [2] has as its system rats with continuous perfusion of Aβ (1-40) into lateral ventricle. Kind of experiment: Morris' water maze and working memory test after continuous i.c.v. perfusion of Aβ (1-40). The class given is in vivo, Wistar rats. To be noted: continuous perfusion of Aβ (1-40) into lateral ventricle, rats, Morris' water maze. The method, then:
For Morris' Water Maze Automatic Monitor and experimental protocols, reference may be made to the experiments of learning and memory damage of rats induced by brain hypoperfusion.
Male Wistar rats, which were 10-weeks old and weighed approximately 280 grams, were used. One animal was placed in one cage, while the room temperature was kept at 23° C., with food and water freely accessible. Rats were anaesthetized with sodium pentobarbital (40 mg/kg), and were fixed to stereotaxic apparatus with the position of ventral decubitus. Head skin was cut open, a cannula for Aβ (1-40) perfusion was implanted into right ventricle. According to the stereotaxic profile of rat brain by Paxions and Watson, the implantation site was located 0.3 mm behind and 1.1 mm in the right side of anterior fontanelle, with the depth of 4.0 mm. The cannula was connected to a micro-osmotic pump. The pump was placed on the back of the rat. Aβ (1-40) was dissolved in 35% acetonitrile/0.1% trifluroacetic acid, and was continuously perfused intracerebroventricularly (i.c.v.) at 300 pmol/day, while only the solvent (35% acetonitrile/0.1% trifluroacetic acid) was perfused in the control group.
Rats were randomly classified into […] groups, with 10 animals per group. 1) the sham surgery group: only 35% acetonitrile/0.1% trifluroacetic acid+solvent was perfused into the ventricles of the rats; 2) the model group: Aβ (1-40)+solvent; 3) Aβ (1-40)+L-NBP 10 mg/kg group; 4) Aβ (1-40)+L-NBP 30 mg/kg group. Respective drug or solvent was drenched since the 2nd day after the surgery. The water maze experiment was performed on the 9-13 day after the surgery, while the platform exploration experiment was performed on the 13th day, and the working memory test was performed on the 14-16th days. Animals were decapitated to remove brains for biochemical assay on the 17th day. In all ethological tests, medicines were administered 40 minutes prior to the respective test.
The water maze training experiment was performed on the 9-13th day after icv Aβ (1-40), and the platform exploration experiment was performed on the 13 day after that. The working memory test was performed on the 14-16th day after icv Aβ (1-40) (see the figure above), which investigated the ability of rapid learning and spatial memory in animals when the platform and quadrant were changed, based on the fact that animals had memorized in some extent after training and platform exploration experiment. Experimental procedure was similar to the standard water maze training experiment except that the platform's location was changed every day. The experiment was conducted five times every day, allowing the rats to start swimming from five water-entry sites respectively. […] In the following 4 experiments, the location of the platform was kept constant, yet the water entry sites were within different quadrants. The latency of working memory was calculated by averaging those of the 2-5th experiments, and the ability of working memory of each rat was calculated by averaging the experimental values in 3 days.
All results were expressed in mean±standard error. Comparison of latencies between groups in water maze experiment was performed using two-factor analysis of variance in replicate. Comparison between groups was performed using post hoc LSD or Turkey test. Platform exploration test in water maze experiment, working memory test and biochemical assay were analyzed using one-factor analysis of variance. A difference was considered significant when p<0.05.

Experiment [3] concerns rats with coriamyrtin-induced impaired learning and memory. Particulars: Shuren Yu et al. 1988, cited from earlier work.

Entries after “also recorded” stand apart in the source; their conditions may differ.

On to `CCCCC1OC(=O)c2ccccc21` (racemic) [DL-NBP, 3-n-butylphthalide], for which the “effect on detention time in the target quadrant (platform exploration test)” value in experiment [1] (10 mg/kg oral) and in experiment [1] (30 mg/kg oral) was “no effect” each time. Moreover, the “improvement of latency / search strategy in water maze” value in experiment [1] (10 mg/kg oral) and in experiment [1] (30 mg/kg oral) was “no significant effect of improvement; also recorded: no obvious improved effect” in each case. In addition, the “amelioration of impaired short-term memory and spatial orientation (overall conclusion)” value in experiment [1] (listed as racemic (DL-)) is listed as “could not”; in experiment [1] (listed as racemic butylphthalide), “neither racemic butylphthalide nor D-butylphthalide were effective”. Also, the “amelioration of impaired short-term memory and stereotaxic memory (overall conclusion)” value in experiment [2] is reported as “neither D-NBP nor DL-NBP showed similar effects”. For the same molecule, the “improvement of impaired learning and memory induced by coriamyrtin” value in experiment [3] is “could be used to improve the impaired learning and memory”. In addition, the “protection of hippocampal cells” value in experiment [3] (coriamyrtin) is “protect hippocampal cells”.

For `CCCC[C@H]1OC(=O)c2ccccc21` [D-NBP, D-n-butylphthalide], the “improvement of latency / search strategy in water maze” value in experiment [1] (30 mg/kg oral) is “no significant effect of improvement; also recorded: no obvious improved effect”. Moreover, the “amelioration of impaired short-term memory and spatial orientation (overall conclusion)” value in experiment [1] is recorded as “could not”; in experiment [1] (listed as D-butylphthalide), “neither racemic butylphthalide nor D-butylphthalide were effective”. For the same molecule, the “amelioration of impaired short-term memory and stereotaxic memory (overall conclusion)” value in experiment [2] is listed as “neither D-NBP nor DL-NBP showed similar effects”.
